Experimental data from the supplement of paper PMC10307832.

Assays:
Test in all cases: relative viability (nuclei count vs DMSO), 5 days (fraction); higher = more cells survive
NCI-H1915 = tested on: NCI-H1915
How it was run: (§1)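 A single step with final 0.05% Triton X-100, 1% formaldehyde and 1 ug/ml Hoechst fixed the cells and stained nuclei 5 days after treatment. Lung cancer cell lines in 1536-well plates had been treated by pin tool the day after seeding with one drug alone or a fixed anchor-drug dose plus five library-drug doses (not always all listed) in √10 steps, and nuclei were counted on 4× images. Relative viability is the ratio of nuclei in treated wells to nuclei in vehicle wells, taken as the median of duplicate plates.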

NCI-H1666 = tested on: NCI-H1666
How it was run: as §1

LCLC-97TM1 = tested on: LCLC-97TM1
How it was run: as §1

NCI-H838 = tested on: NCI-H838
How it was run: as §1

NCI-H727 = tested on: NCI-H727
How it was run: as §1

NCI-H520 = tested on: NCI-H520
How it was run: as §1

EKVX = tested on: EKVX
How it was run: as §1

NCI-H322M = tested on: NCI-H322M
How it was run: as §1

NCI-H596 = tested on: NCI-H596
How it was run: as §1

NCI-H23 = tested on: NCI-H23
How it was run: as §1

NCI-H1792 = tested on: NCI-H1792
How it was run: as §1

NCI-H661 = tested on: NCI-H661
How it was run: as §1

NCI-H1437 = tested on: NCI-H1437
How it was run: as §1

NCI-H441 = tested on: NCI-H441
How it was run: as §1

NCI-H358 = tested on: NCI-H358
How it was run: as §1

NCI-H460 = tested on: NCI-H460
How it was run: as §1

NCI-H1650 = tested on: NCI-H1650
How it was run: as §1

SK-LU-1 = tested on: SK-LU-1
How it was run: as §1

NCI-H647 = tested on: NCI-H647
How it was run: as §1

NCI-H1975 = tested on: NCI-H1975
How it was run: as §1

PC-3 [JPC-3] = tested on: PC-3 [JPC-3]
How it was run: as §1

`Cc1cn(-c2cc(NC(=O)c3ccc(C)c(Nc4nccc(-c5cccnc5)n4)c3)cc(C(F)(F)F)c2)cn1` [Nilotinib] + CS(=O)(=O)N1CCN(Cc2cc3nc(-c4cccc5[nH]ncc45)nc(N4CCOCC4)c3s2)CC1 [Pictilisib] (partner 1 µM) gave a relative viability (NCI-H1915; first compound 0.001 µM) of 0.958, a relative viability (NCI-H1915; first compound 0.003162 µM) of 1.02 and a relative viability (NCI-H1915; first compound 0.01 µM) of 0.903. It also gave a relative viability (NCI-H1915; first compound 0.03162 µM) of 0.993, a relative viability (NCI-H1915; first compound 0.1 µM) of 0.408 and a relative viability (NCI-H1666; first compound 0.001 µM) of 0.348. For the same molecule, the relative viability (NCI-H1666; first compound 0.003162 µM) was 0.319, the relative viability (NCI-H1666; first compound 0.01 µM) was 0.373 and the relative viability (NCI-H1666; first compound 0.03162 µM) was 0.463. For the same molecule, the relative viability (NCI-H1666; first compound 0.1 µM) was 0.397, the relative viability (LCLC-97TM1; first compound 0.001 µM) was 0.184 and the relative viability (LCLC-97TM1; first compound 0.003162 µM) was 0.213. The relative viability (LCLC-97TM1; first compound 0.01 µM) was 0.16, the relative viability (LCLC-97TM1; first compound 0.03162 µM) was 0.167 and the relative viability (LCLC-97TM1; first compound 0.1 µM) was 0.123. The relative viability (NCI-H838; first compound 0.001 µM) was 0.408, the relative viability (NCI-H838; first compound 0.003162 µM) was 0.491 and the relative viability (NCI-H838; first compound 0.01 µM) was 0.335. The relative viability (NCI-H838; first compound 0.03162 µM) was 0.41, the relative viability (NCI-H838; first compound 0.1 µM) was 0.336 and the relative viability (NCI-H727; first compound 0.001 µM) was 0.382. For the same molecule, the relative viability (NCI-H727; first compound 0.01 µM) was 0.447, the relative viability (NCI-H727; first compound 0.1 µM) was 0.264 and the relative viability (NCI-H520; first compound 0.001 µM) was 0.283. It also gave a relative viability (NCI-H520; first compound 0.01 µM) of 0.296, a relative viability (NCI-H520; first compound 0.03162 µM) of 0.283 and a relative viability (NCI-H520; first compound 0.1 µM) of 0.232. The relative viability (EKVX; first compound 0.001 µM) was 0.486, the relative viability (EKVX; first compound 0.003162 µM) was 0.588 and the relative viability (EKVX; first compound 0.01 µM) was 0.531. It also gave a relative viability (EKVX; first compound 0.03162 µM) of 0.344, a relative viability (EKVX; first compound 0.1 µM) of 0.552 and a relative viability (NCI-H322M; first compound 0.001 µM) of 0.651. It also gave a relative viability (NCI-H322M; first compound 0.003162 µM) of 0.503, a relative viability (NCI-H322M; first compound 0.03162 µM) of 0.529 and a relative viability (NCI-H322M; first compound 0.1 µM) of 0.528. It also gave a relative viability (NCI-H596; first compound 0.001 µM) of 0.352, a relative viability (NCI-H596; first compound 0.003162 µM) of 0.41 and a relative viability (NCI-H596; first compound 0.01 µM) of 0.386. For the same molecule, the relative viability (NCI-H596; first compound 0.03162 µM) was 0.393, the relative viability (NCI-H596; first compound 0.1 µM) was 0.366 and the relative viability (NCI-H23; first compound 0.001 µM) was 0.411. It also gave a relative viability (NCI-H23; first compound 0.003162 µM) of 0.498, a relative viability (NCI-H23; first compound 0.01 µM) of 0.546 and a relative viability (NCI-H23; first compound 0.03162 µM) of 0.348. For the same molecule, the relative viability (NCI-H23; first compound 0.1 µM) was 0.403, the relative viability (NCI-H1792; first compound 0.001 µM) was 0.209 and the relative viability (NCI-H1792; first compound 0.01 µM) was 0.266. The relative viability (NCI-H661; first compound 0.001 µM) was 0.396, the relative viability (NCI-H661; first compound 0.003162 µM) was 0.38 and the relative viability (NCI-H661; first compound 0.01 µM) was 0.438. It also gave a relative viability (NCI-H661; first compound 0.03162 µM) of 0.325, a relative viability (NCI-H661; first compound 0.1 µM) of 0.391 and a relative viability (NCI-H1437; first compound 0.001 µM) of 0.381. For the same molecule, the relative viability (NCI-H1437; first compound 0.003162 µM) was 0.414, the relative viability (NCI-H1437; first compound 0.01 µM) was 0.373 and the relative viability (NCI-H1437; first compound 0.03162 µM) was 0.47. It also gave a relative viability (NCI-H1437; first compound 0.1 µM) of 0.44, a relative viability (NCI-H441; first compound 0.001 µM) of 0.371 and a relative viability (NCI-H441; first compound 0.003162 µM) of 0.576. For the same molecule, the relative viability (NCI-H441; first compound 0.01 µM) was 0.532, the relative viability (NCI-H441; first compound 0.1 µM) was 0.305 and the relative viability (NCI-H358; first compound 0.001 µM) was 0.375. It also gave a relative viability (NCI-H358; first compound 0.003162 µM) of 0.438, a relative viability (NCI-H358; first compound 0.01 µM) of 0.348 and a relative viability (NCI-H358; first compound 0.03162 µM) of 0.444. It also gave a relative viability (NCI-H358; first compound 0.1 µM) of 0.301, a relative viability (NCI-H460; first compound 0.001 µM) of 0.356 and a relative viability (NCI-H460; first compound 0.003162 µM) of 0.41. For the same molecule, the relative viability (NCI-H460; first compound 0.01 µM) was 0.402, the relative viability (NCI-H460; first compound 0.03162 µM) was 0.263 and the relative viability (NCI-H460; first compound 0.1 µM) was 0.418. The relative viability (NCI-H1650; first compound 0.001 µM) was 0.534, the relative viability (NCI-H1650; first compound 0.003162 µM) was 0.709 and the relative viability (NCI-H1650; first compound 0.01 µM) was 0.562. The relative viability (NCI-H1650; first compound 0.03162 µM) was 0.546, the relative viability (NCI-H1650; first compound 0.1 µM) was 0.288 and the relative viability (SK-LU-1; first compound 0.001 µM) was 0.499. The relative viability (SK-LU-1; first compound 0.003162 µM) was 0.526, the relative viability (SK-LU-1; first compound 0.01 µM) was 0.563 and the relative viability (SK-LU-1; first compound 0.03162 µM) was 0.366. It also gave a relative viability (SK-LU-1; first compound 0.1 µM) of 0.499, a relative viability (NCI-H647; first compound 0.001 µM) of 0.528 and a relative viability (NCI-H647; first compound 0.003162 µM) of 0.452. It also gave a relative viability (NCI-H647; first compound 0.01 µM) of 0.38, a relative viability (NCI-H647; first compound 0.03162 µM) of 0.43 and a relative viability (NCI-H647; first compound 0.1 µM) of 0.397. For the same molecule, the relative viability (NCI-H1975; first compound 0.001 µM) was 0.299, the relative viability (NCI-H1975; first compound 0.003162 µM) was 0.358 and the relative viability (NCI-H1975; first compound 0.01 µM) was 0.231. It also gave a relative viability (NCI-H1975; first compound 0.03162 µM) of 0.312, a relative viability (NCI-H1975; first compound 0.1 µM) of 0.19 and a relative viability (PC-3 [JPC-3]; first compound 0.001 µM) of 0.791. The relative viability (PC-3 [JPC-3]; first compound 0.003162 µM) was 0.88, the relative viability (PC-3 [JPC-3]; first compound 0.01 µM) was 0.833 and the relative viability (PC-3 [JPC-3]; first compound 0.03162 µM) was 0.747. The relative viability (PC-3 [JPC-3]; first compound 0.1 µM) was 0.342.
